Read-outs that look alike come from different tables or passages of the source.
Key:
[1] = test system: carbapenem-resistant Acinetobacter baumannii; test: Chessboard microbroth dilution MIC/FIC, compound 2 in combination with polymyxin; assay type: cell-based; conditions: for MIC: Acinetobacter baumannii, read-out: Compound 2 MIC alone; for Compound 2 MIC in combination: with polymyxin; for Polymyxin MIC in combination: with compound 2
Source text: This experiment is designed to determine the minimum inhibitory concentration (MIC) of compound 2 in combination with polymyxin against carbapenem-resistant Acinetobacter baumannii and to calculate the fractional inhibitory concentration (FIC) index.
(§1) Test bacteria: 10 strains of carbapenem-resistant Acinetobacter baumannii are clinically isolated strains, and are provided by Shanghai Junji Medical Laboratory Co., Ltd.
(§2) According to the recommendation of the Clinical and Laboratory Standards Institute (CLSI), the microbroth dilution method designed by the chessboard method was used to determine the minimum inhibitory concentration (MIC) of compound 2 in combination with polymyxin against the above strains, and the fractional inhibitory concentration (FIC) index was calculated.
(§3) Compound 2 was dissolved in dimethyl sulfoxide to obtain a stock solution I with a concentration of 51200 mg/L. The stock solution I was subjected to 1:1 gradient dilution with dimethyl sulfoxide to obtain a dilution solution with a concentration range of 51200 to 25 mg/L. The corresponding concentrations were added to sterile water for 100-fold dilution to obtain working solution I with a concentration range of 512 to 0.25 mg/L.
Polymyxin was dissolved in sterile water to obtain a stock solution with a concentration of 5120 mg/L. The […] stock solution was subjected to 1:1 gradient dilution with sterile water to obtain a working solution II with a concentration range of 512 to 0.25 mg/L.
(§4) According to the method in Example 1, a drug sensitive plate was prepared with working solution I and working solution II, and the specific process will not be repeated here.
(§5) (2) The culture medium of the bacterial solution: Cation-Adjusted Mueller-Hinton Broth (CAMHB), a product of BBL, USA, batch number 9015952.
(§6) (3) Formulation method of bacterial solution: According to the direct colony suspension method, the test bacteria cultured overnight were prepared into a 0.5 McFarland turbidity tube using physiological saline. Then, the resulting solution was dilute 100 times with the above culture medium. 100 μL of the resulting bacterial solution was mixed well with the solution (100 μL) in each well of the drug sensitivity plate, and the final inoculation amount was 10^5 CFU/mL.
(§7) (4) Culture conditions: Culturing at 35±2° C. for 20 hours in air.
(§8) (1) The experimental results were determined according to the standard of CLSI 2020 M100 30th edition.
(§9) wherein: FIC≤0.5 indicates synergistic effect; 0.5<FIC≤1.0 indicates additive effect; 1<FIC≤2.0 indicates irrelevant effect; and FIC>2 indicates antagonistic effect.

[2] = test system: carbapenem-resistant Acinetobacter baumannii; test: Chessboard microbroth dilution MIC/FIC, compound 1 in combination with polymyxin; assay type: cell-based; conditions: for Polymyxin MIC in combination: with compound 1
Source text: This experiment is designed to determine the minimum inhibitory concentration (MIC) of compound 1 in combination with polymyxin against carbapenem-resistant Acinetobacter baumannii and to calculate the fractional inhibitory concentration (FIC) index.
as §1
as §2, with “1” for “2”
as §3, with “Compound 1” for “Compound 2”
Polymyxin was dissolved in sterile water to obtain a stock solution with a concentration of 5120 mg/L. The polymyxin stock solution was subjected to 1:1 gradient dilution with sterile water to obtain a working solution II with a concentration range of 512 to 0.25 mg/L.
as §4, §5, §6, §7, §8, §9

[3] = strain 18-J11-001, compound 2 + polymyxin
[4] = strain 18-J11-002, compound 2 + polymyxin
[5] = strain 18-J11-034, compound 2 + polymyxin
[6] = strain 18-J11-097, compound 2 + polymyxin
[7] = strain 18-J15-030, compound 2 + polymyxin
[8] = strain 18-J21-095, compound 2 + polymyxin
[9] = strain 18-J24-015, compound 2 + polymyxin
[10] = strain 18-J24-033, compound 2 + polymyxin
[11] = strain 18-J40-021, compound 2 + polymyxin
[12] = strain 18-J51-052, compound 2 + polymyxin

O=[N+]([O-])c1c(Cl)c(F)c2cccnc2c1O [Compound 2, 5-fluoro-6-chloro-7-nitroquinolin-8-ol]
8 µg/mL: MIC ([1]; strain 18-J11-001)
Synergistic: Results [1, 3] | Results [1, 4] | Results [1, 6] | Results [1, 9] | Results [1, 11] | Results [1, 12]
0.500: FIC index [1, 4] | FIC index [1, 9] | FIC index [1, 11] | FIC index [1, 12]
2 µg/mL: Compound 2 MIC in combination ([1]; strain 18-J21-095) | Compound 2 MIC in combination ([1]; strain 18-J24-033)
Additive: Results [1, 5] | Results [1, 7] | Results [1, 8] | Results [1, 10]
0.5 µg/mL: Compound 2 MIC in combination ([1]; strain 18-J11-097)
synergistic effect or additive effect: effect of the combination (summary of Table 3) ([1]; compound 2 + polymyxin)
significantly reduce: change of the MIC of polymyxin by the combination ([1]; compound 2 + polymyxin)
4 µg/mL: MIC ([1]; strain 18-J11-002) | MIC ([1]; strain 18-J11-034) | MIC ([1]; strain 18-J11-097) | MIC ([1]; strain 18-J15-030) | MIC ([1]; strain 18-J21-095) | MIC ([1]; strain 18-J24-015) | MIC ([1]; strain 18-J24-033) | MIC ([1]; strain 18-J40-021) | MIC ([1]; strain 18-J51-052)
0.375: FIC index [1, 3] | FIC index [1, 6]
1.000: FIC index [1, 8]
0.625: FIC index [1, 10]
0.750: FIC index [1, 5] | FIC index [1, 7]
1 µg/mL: Compound 2 MIC in combination ([1]; strain 18-J11-001) | Compound 2 MIC in combination ([1]; strain 18-J11-002) | Compound 2 MIC in combination ([1]; strain 18-J11-034) | Compound 2 MIC in combination ([1]; strain 18-J15-030) | Compound 2 MIC in combination ([1]; strain 18-J24-015) | Compound 2 MIC in combination ([1]; strain 18-J40-021) | Compound 2 MIC in combination ([1]; strain 18-J51-052)

polymyxin E [reference compound]
0.25 µg/mL: Polymyxin MIC in combination ([1]; strain 18-J11-002) | Polymyxin MIC in combination ([1]; strain 18-J11-034) | Polymyxin MIC in combination ([1]; strain 18-J15-030) | Polymyxin MIC in combination ([1]; strain 18-J21-095) | Polymyxin MIC in combination ([1]; strain 18-J24-015) | Polymyxin MIC in combination ([1]; strain 18-J40-021) | Polymyxin MIC in combination ([1]; strain 18-J51-052) | Polymyxin MIC alone ([2]; strain 18-J11-001) | Polymyxin MIC alone ([2]; strain 18-J11-002) | Polymyxin MIC alone ([2]; strain 18-J11-097) | Polymyxin MIC alone ([2]; strain 18-J21-095)
0.5 µg/mL: Polymyxin MIC alone ([1]; strain 18-J11-001) | Polymyxin MIC alone ([1]; strain 18-J11-034) | Polymyxin MIC alone ([1]; strain 18-J11-097) | Polymyxin MIC alone ([1]; strain 18-J15-030) | Polymyxin MIC alone ([1]; strain 18-J21-095) | Polymyxin MIC alone ([2]; strain 18-J11-034) | Polymyxin MIC alone ([2]; strain 18-J15-030) | Polymyxin MIC alone ([2]; strain 18-J24-015) | Polymyxin MIC alone ([2]; strain 18-J24-033) | Polymyxin MIC alone ([2]; strain 18-J51-052)
0.06 µg/mL: Polymyxin MIC in combination ([2]; strain 18-J11-001) | Polymyxin MIC in combination ([2]; strain 18-J11-002) | Polymyxin MIC in combination ([2]; strain 18-J11-097) | Polymyxin MIC in combination ([2]; strain 18-J21-095)
0.125 µg/mL: Polymyxin MIC in combination ([1]; strain 18-J11-001) | Polymyxin MIC in combination ([1]; strain 18-J11-097) | Polymyxin MIC in combination ([1]; strain 18-J24-033) | Polymyxin MIC in combination ([2]; strain 18-J11-034) | Polymyxin MIC in combination ([2]; strain 18-J15-030) | Polymyxin MIC in combination ([2]; strain 18-J24-015) | Polymyxin MIC in combination ([2]; strain 18-J24-033) | Polymyxin MIC in combination ([2]; strain 18-J40-021) | Polymyxin MIC in combination ([2]; strain 18-J51-052)
1 µg/mL: Polymyxin MIC alone ([1]; strain 18-J11-002) | Polymyxin MIC alone ([1]; strain 18-J24-015) | Polymyxin MIC alone ([1]; strain 18-J24-033) | Polymyxin MIC alone ([1]; strain 18-J40-021) | Polymyxin MIC alone ([1]; strain 18-J51-052) | Polymyxin MIC alone ([2]; strain 18-J40-021)

From US20260240832A1, “USE OF NITROXOLINE COMPOUND IN ENHANCING EFFECT OF ANTIBACTERIAL AGENT” (Jiangsu Yahong Meditech Co., Ltd., priority 2022, published 2026)
